In ChEMBL document CHEMBL1201862, “PubChem BioAssay data set” (2004):
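Values below derive from 48-hour exposures of cells grown in 96-well plates, with endpoints linearly interpolated between the two concentrations bracketing the appropriate inhibition level. GI50 = concentration required for 50% inhibition of growth.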 Active and inactive are the calls of the source. Cut-off read from the data, not from the text of the source: active = GI50 up to about 1.1 µM and inactive = higher.

Legend:
Experiment in all cases: NCI tumour cell line growth inhibition, 48 h
[1] = test system: NCI-H226
[2] = test system: NCI-H522
[3] = test system: OVCAR-8
[4] = test system: SF-268
[5] = test system: SK-MEL-28
[6] = test system: RPMI-8226
[7] = test system: CAKI-1
[8] = test system: TK-10
[9] = test system: SN12C
[10] = test system: HCT-116
[11] = test system: NCI-H460
[12] = test system: HT-29
[13] = test system: K562
[14] = test system: ACHN
[15] = test system: MOLT-4
[16] = test system: HCT-15
[17] = test system: RXF 393
[18] = test system: SR

| SMILES | GI50 [1] | GI50 [2] | GI50 [3] | GI50 [4] | GI50 [5] | GI50 [6] | GI50 [7] | GI50 [8] | GI50 [9] | GI50 [10] | GI50 [11] | GI50 [12] | GI50 [13] | GI50 [14] | GI50 [15] | GI50 [16] | GI50 [17] | GI50 [18] |
| --- | --- | --- | --- | --- | --- | --- | --- | --- | --- | --- | --- | --- | --- | --- | --- | --- | --- | --- |
| Cc1ccc(NC(=O)C2C(=O)N(c3ccc(C)cc3)C(=O)/C2=N\NC(N)=S)cc1 (stereo unspecified) | > 100 µM (inactive) | > 100 µM (inactive) | > 100 µM (inactive) | > 100 µM (inactive) | > 100 µM (inactive) | > 100 µM (inactive) | > 100 µM (inactive) | > 100 µM (inactive) | > 100 µM (inactive) | > 100 µM (inactive) | > 100 µM (inactive) | > 100 µM (inactive) | > 100 µM (inactive) | > 100 µM (inactive) | > 100 µM (inactive) | > 100 µM | > 100 µM (inactive) |  |
| O=C1CCCCCCC2=C1C(Sc1ccccc1)CC2 (stereo unspecified) | 29.5 µM (inactive) | 18.5 µM (inactive) | 23 µM (inactive) | 19.9 µM (inactive) | 32.4 µM (inactive) | 30.3 µM (inactive) |  | 36.6 µM (inactive) | 19.9 µM (inactive) | 21.7 µM (inactive) | 27.2 µM (inactive) | 34 µM (inactive) | 27.2 µM (inactive) | 36.1 µM (inactive) | 18.1 µM (inactive) | 31.7 µM | 18.9 µM (inactive) | 18.2 µM (inactive) |
| C#C[C@]1(O)CCC2C3CCc4cc(Oc5nc(F)nc(-n6c(C)nc7cc8ccccc8cc76)n5)ccc4C3CCC21C (stereo partly specified) | 47.8 µM (inactive) | 37.3 µM (inactive) | 39.1 µM (inactive) | 47.6 µM (inactive) | > 10 µM (inactive) | 38.2 µM (inactive) |  | 65.9 µM (inactive) | 37.5 µM (inactive) | 32.8 µM (inactive) | 25.4 µM (inactive) | 31 µM (inactive) | 34 µM (inactive) | 61.4 µM (inactive) | 27.4 µM (inactive) |  | 48.9 µM (inactive) |  |
| O=c1c2cc(Br)ccc2[nH]c(=S)n1-c1ccccc1 | > 100 µM (inactive) |  | > 100 µM (inactive) | > 100 µM (inactive) | > 100 µM (inactive) | > 100 µM (inactive) | > 100 µM (inactive) | > 100 µM (inactive) | > 100 µM (inactive) | > 100 µM (inactive) | > 100 µM (inactive) | > 100 µM (inactive) | > 100 µM (inactive) | > 100 µM (inactive) |  | > 100 µM |  |  |
| CCCCCCCCCCCCC(Br)C(=O)SCCNC(=O)CCNC(=O)[C@@H](O)C(C)(C)COP(=O)(O)OP(=O)(O)OCC1OC(n2cnc3c(N)ncnc32)C(O)C1OP(=O)(O)O (stereo partly specified) | > 56.5 µM (inactive) | > 56.5 µM (inactive) | 54.3 µM (inactive) | > 56.5 µM (inactive) | > 56.5 µM (inactive) |  |  | > 56.5 µM (inactive) | > 56.5 µM (inactive) | 22 µM (inactive) | 22.5 µM (inactive) | > 56.5 µM (inactive) |  | > 56.5 µM (inactive) |  | > 56.5 µM | > 56.5 µM (inactive) |  |
| Fc1ccc2c(c1)cc1ccc3cccc4ccc2c1c34 | > 100 µM (inactive) | > 100 µM (inactive) | > 100 µM (inactive) | > 100 µM (inactive) | > 100 µM (inactive) |  | > 100 µM (inactive) | > 100 µM (inactive) | > 100 µM (inactive) | > 100 µM (inactive) |  | > 100 µM (inactive) | > 100 µM (inactive) | > 100 µM (inactive) | > 100 µM (inactive) |  | > 100 µM (inactive) | > 100 µM (inactive) |
| C/C(=C\C(C[C@](C)(O)C(O)CCC#C[Si](C)(C)C)S(=O)(=O)c1ccccc1)CC/C=C/CO[Si](C)(C)C(C)(C)C (stereo partly specified) | 22.1 µM (inactive) | 16.2 µM (inactive) | 17.2 µM (inactive) |  |  | 10.1 µM (inactive) | 18.6 µM (inactive) | 22 µM (inactive) | 6.24 µM (inactive) | 13.4 µM (inactive) | 12.5 µM (inactive) | 3.57 µM (inactive) | 10.7 µM (inactive) | 16 µM (inactive) | 6.95 µM (inactive) | 17.4 µM | 14.7 µM (inactive) |  |
| CN1C(=O)CC2(C)c3cc(O)cc(Br)c3N(C)C12 (stereo unspecified) | > 100 µM (inactive) | > 100 µM (inactive) | > 100 µM (inactive) | > 100 µM (inactive) | > 100 µM (inactive) |  |  | > 100 µM (inactive) | > 100 µM (inactive) | > 100 µM (inactive) | > 100 µM (inactive) | > 100 µM (inactive) | > 100 µM (inactive) | > 100 µM (inactive) | > 100 µM (inactive) | > 100 µM | > 100 µM (inactive) |  |
| CC1=C(C(=O)Nc2ccccc2)C(c2ccccc2)C(C(=O)Nc2ccccc2)=C(C)N1 | > 100 µM (inactive) | 16.3 µM (inactive) | 75 µM (inactive) | 42.5 µM (inactive) | 55.8 µM (inactive) |  | 4.74 µM (inactive) | 91 µM (inactive) | > 100 µM (inactive) | 26.5 µM (inactive) | 45.8 µM (inactive) | 32.2 µM (inactive) |  | 17.6 µM (inactive) | 18.7 µM (inactive) | 23.4 µM | 26.5 µM (inactive) |  |
| CC(=O)Nc1ccccc1S(=O)(=O)c1ccccc1 | > 100 µM (inactive) | > 100 µM (inactive) | > 100 µM (inactive) | > 100 µM (inactive) | > 100 µM (inactive) | > 100 µM (inactive) | > 100 µM (inactive) | > 100 µM (inactive) | > 100 µM (inactive) | > 100 µM (inactive) | > 100 µM (inactive) | > 100 µM (inactive) | > 100 µM (inactive) | > 100 µM (inactive) | > 100 µM (inactive) | > 100 µM | > 100 µM (inactive) |  |
| O=C(CC1C(=O)Nc2ccccc2S1(=O)=O)Nc1cc(Cl)ccc1Cl (stereo unspecified) | 14.8 µM (inactive) |  | 17.5 µM (inactive) | 10.8 µM (inactive) | 16.6 µM (inactive) | 2.87 µM (inactive) | 16.1 µM (inactive) | 20.1 µM (inactive) | 15.6 µM (inactive) | 14.4 µM (inactive) | 13.6 µM (inactive) | 17.4 µM (inactive) | 13.9 µM (inactive) | 17.2 µM (inactive) | 6.01 µM (inactive) | 11.5 µM | 15.8 µM (inactive) | 7.16 µM (inactive) |
| CC1=Nn2c(nnc2-c2ccc(Cl)cc2)NC(C)(C)C1 | > 100 µM (inactive) | > 100 µM (inactive) |  | > 100 µM (inactive) | > 100 µM (inactive) | > 100 µM (inactive) | > 100 µM (inactive) | > 100 µM (inactive) |  |  | > 100 µM (inactive) | > 100 µM (inactive) | > 100 µM (inactive) | > 100 µM (inactive) | > 100 µM (inactive) | > 100 µM |  |  |
| CN(CC(=O)O)S(=O)(=O)c1ccc2ccccc2c1 |  | > 100 µM (inactive) | > 100 µM (inactive) | > 100 µM (inactive) | > 100 µM (inactive) | > 100 µM (inactive) | > 100 µM (inactive) | > 100 µM (inactive) | > 100 µM (inactive) |  | > 100 µM (inactive) | > 100 µM (inactive) | > 100 µM (inactive) | > 100 µM (inactive) | > 100 µM (inactive) | > 100 µM | > 100 µM (inactive) |  |
| O=c1/c(=C/c2ccccc2[N+](=O)[O-])sc2nnc(-c3cccnc3)n12 | > 100 µM (inactive) |  | > 100 µM (inactive) | > 100 µM (inactive) | > 100 µM (inactive) | > 100 µM (inactive) | 1.43 µM (inactive) | > 100 µM (inactive) | > 100 µM (inactive) | > 100 µM (inactive) | > 100 µM (inactive) | > 100 µM (inactive) | 74.1 µM (inactive) | > 100 µM (inactive) | 63.5 µM (inactive) | > 100 µM | > 100 µM (inactive) | 76.7 µM (inactive) |
| COc1ccc2ccc3c(c2c1)CN1CCc2cc(OC)c(OC)cc2C1C3 (stereo unspecified) | > 100 µM (inactive) | > 100 µM (inactive) | > 100 µM (inactive) |  | > 100 µM (inactive) | > 100 µM (inactive) | > 100 µM (inactive) | > 100 µM (inactive) | > 100 µM (inactive) |  | > 100 µM (inactive) | > 100 µM (inactive) | > 100 µM (inactive) | > 100 µM (inactive) | > 100 µM (inactive) | > 100 µM |  | > 100 µM (inactive) |
| COc1ccc(-c2c(N)[n+]([O-])c3cc(C)c(C)cc3[n+]2[O-])cc1OC | > 100 µM (inactive) | 17.5 µM (inactive) | > 100 µM (inactive) | 43.8 µM (inactive) | 38.5 µM (inactive) | > 100 µM (inactive) | 37.8 µM (inactive) | > 100 µM (inactive) | > 100 µM (inactive) |  | > 100 µM (inactive) | 73.1 µM (inactive) | 69.7 µM (inactive) | > 100 µM (inactive) | 78.3 µM (inactive) | 48.6 µM |  |  |
| CC12CO[C@@](C)(CC(S(=O)(=O)c3ccccc3)C1)O2 (stereo partly specified) |  | > 100 µM (inactive) | > 100 µM (inactive) | > 100 µM (inactive) | > 100 µM (inactive) | > 100 µM (inactive) |  |  | > 100 µM (inactive) | > 100 µM (inactive) | > 100 µM (inactive) | > 100 µM (inactive) | > 100 µM (inactive) | > 100 µM (inactive) | > 100 µM (inactive) | > 100 µM | > 100 µM (inactive) | > 100 µM (inactive) |
| COC(=O)C12CC(C3CC31)C1CC12 (stereo unspecified) | > 100 µM (inactive) |  | > 100 µM (inactive) | > 100 µM (inactive) | > 100 µM (inactive) | > 100 µM (inactive) | > 100 µM (inactive) | > 100 µM (inactive) | > 100 µM (inactive) | > 100 µM (inactive) | > 100 µM (inactive) | > 100 µM (inactive) | > 100 µM (inactive) | > 100 µM (inactive) | > 100 µM (inactive) | > 100 µM |  | > 100 µM (inactive) |
